According to patent publication US12214092B2, “Systems and methods for treating biological fluids” (Cerus Corporation, priority 2017, dated 2025):
Values joined by “and” are separate entries in the source; they are usually repeats but may differ in a detail not shown here. Equal entries are not always repeated. Where two headings read alike, the source gives them in different places.

Tests used:
P. acnes = assay: Amotosalen and UV light (265-385 nm LEDs) treatment of P. acnes in plasma, colony forming unit assay; assay type: cell-based; conditions: 15 μM amotosalen, ~6.4 J/cm^2, plasma
From the text: (§1) This system comprised single arrays facing (e.g., opposing) a platform positioned for the illumination of biological fluids placed on the platform (see e.g., FIG. 5). System controls provided for adjustment of the LEDs during treatment of the biological fluid samples, controlling both the timing and intensity of illumination by the LEDs to achieve a desired light UV light dose. Evaluation of photochemical conversion, photoproduct formation, pathogen inactivation, and plasma and/or platelet quality parameters are performed for each light source wavelength as described previously. In one study using the device, photochemical inactivation of various bacteria were tested for each of the above-referenced LEDs together with amotosalen. The bacteria included E. coli (Gram negative), S. epidermidis (Gram positive), and P. acnes (anaerobe). As there are known germicidal effects of ultraviolet light with wavelengths in the UVC and UVB range, the study was controlled to determine for each LED wavelength the total inactivation levels, as well as inactivation levels specifically resulting from the UV light (without added amotosalen) or the photochemical treatment process itself.

E. coli = assay: Photochemical inactivation of E. coli in human plasma with amotosalen and UVA, colony forming unit assay; assay type: cell-based; conditions: for E. coli Log Reduction: ~6.4 J/cm^2, n = 2
[1] = S-59 photoconversion in E. coli-spiked plasma, HPLC; assay type: physicochemical
Method: Bacterial titer results pre- and post-UVA treatment are shown in the following Table 4, along with the levels of bacterial inactivation obtained (log reduction). Additionally, the efficiency of photoconversion of amotosalen (S-59) was also determined and shown as percent remaining S-59 after each indicated treatment condition. LOQ represents the limit of quantification. Bacterial titers were analyzed pre- and post-UVA treatment to determine bacterial inactivation levels, which are shown as log reduction in the following Table 5. Additionally, S-59 photoconversion was also determined by HPLC and shown as both absolute concentration and percent remaining after each indicated treatment condition.

S. epidermidis = assay: Amotosalen and UV light (265-385 nm LEDs) treatment of S. epidermidis in plasma, colony forming unit assay; assay type: cell-based; conditions: 15 μM amotosalen, ~3 J/cm^2, plasma
From the text: as §1

[2] = test system: vesicular stomatitis virus (VSV); assay type: cell-based; conditions: for Log Inact. / Post-Txt Titer / Pre-Txt Titer: 30 μM, listed as amotosalen; for Log inactivation / Post-treatment titer / Pre-treatment titer: 150 μM
[3] = Amotosalen concentration post-UVA in FCV-spiked platelets, HPLC; assay type: physicochemical
[4] = 340 nm, 220 mL plasma, 15 μM, ~6.4 J/cm^2
[5] = 340 nm, 350 mL plasma, 15 μM, ~6.4 J/cm^2
[6] = INT-100, 220 mL plasma, 15 μM, ~6.4 J/cm^2
[7] = INT-100, 350 mL plasma, 15 μM, ~6.4 J/cm^2

SMILES: Cc1oc2c(C)c3oc(=O)cc(C)c3cc2c1COCCN [S-59, 3-(2-aminoethoxymethyl)-2,5,9-trimethylfuro[3,2-g]chromen-7-one]
- Log reduction from S-59 (P. acnes; 265 nm): 1.60 log
- Log reduction total (P. acnes; 265 nm): 6.03 log
- Log reduction from S-59 (P. acnes; 280 nm): 0.71 log
- Log reduction total (P. acnes; 280 nm): 1.09 log
- Log reduction from S-59 (P. acnes; 310 nm): 5.67 log
- Log reduction total (P. acnes; 310 nm): 6.99 log
- Log reduction from S-59 (P. acnes; 325 nm): 6.54 log
- Log reduction total (P. acnes; 325 nm): 6.69 log
- Log reduction from S-59 (P. acnes; 340 nm): 6.78 log
- Log reduction total (P. acnes; 340 nm): 6.99 log
- Log reduction from S-59 (P. acnes; 365 nm): 6.67 log
- Log reduction total (P. acnes; 365 nm): 6.99 log
- Log reduction from S-59 (P. acnes; 385 nm): 1.64 log
- Log reduction total (P. acnes; 385 nm): 1.97 log
- Log reduction (E. coli; 340 nm, 1.5 μM, ~3 J/cm^2): 1.3 log
- Post-UVA titer (E. coli; 340 nm, 1.5 μM, ~3 J/cm^2): 5.0 log cfu/mL
- Pre-UVA titer (E. coli; 340 nm, 1.5 μM, ~3 J/cm^2): 6.3 log cfu/mL
- Log reduction (E. coli; 340 nm, 1.5 μM, ~6 J/cm^2): 1.5 log
- Post-UVA titer (E. coli; 340 nm, 1.5 μM, ~6 J/cm^2): 4.8 log cfu/mL
- Pre-UVA titer (E. coli; 340 nm, 1.5 μM, ~6 J/cm^2): 6.3 log cfu/mL
- Log reduction (E. coli; 340 nm, 1.5 μM, ~9 J/cm^2): 1.4 log
- Post-UVA titer (E. coli; 340 nm, 1.5 μM, ~9 J/cm^2): 4.9 log cfu/mL
- Pre-UVA titer (E. coli; 340 nm, 1.5 μM, ~9 J/cm^2): 6.3 log cfu/mL
- Log reduction (E. coli; 340 nm, 15 μM, ~3 J/cm^2): 4.7 log
- Post-UVA titer (E. coli; 340 nm, 15 μM, ~3 J/cm^2): 1.4 log cfu/mL
- Pre-UVA titer (E. coli; 340 nm, 15 μM, ~3 J/cm^2): 6.1 log cfu/mL
- Log reduction (E. coli; 340 nm, 15 μM, ~6 J/cm^2): 5.6 log
- Post-UVA titer (E. coli; 340 nm, 15 μM, ~6 J/cm^2): 0.5 log cfu/mL
- Pre-UVA titer (E. coli; 340 nm, 15 μM, ~6 J/cm^2): 6.1 log cfu/mL
- Log reduction (E. coli; 340 nm, 15 μM, ~9 J/cm^2): 5.6 log
- Post-UVA titer (E. coli; 340 nm, 15 μM, ~9 J/cm^2): 0.5 log cfu/mL
- Pre-UVA titer (E. coli; 340 nm, 15 μM, ~9 J/cm^2): 6.1 log cfu/mL
- Log reduction (E. coli; 340 nm, 150 μM, ~3 J/cm^2): >7.0 log
- Post-UVA titer (E. coli; 340 nm, 150 μM, ~3 J/cm^2): <−0.7 log cfu/mL
- Pre-UVA titer (E. coli; 340 nm, 150 μM, ~3 J/cm^2): 6.3 log cfu/mL
- E. coli Log Reduction (E. coli; 340 nm, 220 mL plasma, 15 μM): 6.0 log
- E. coli Log Reduction (E. coli; 340 nm, 350 mL plasma, 15 μM): 4.6 log
- Log reduction (E. coli; INT-100, 15 μM, ~3 J/cm^2): 4.2 log
- Post-UVA titer (E. coli; INT-100, 15 μM, ~3 J/cm^2): 2.0 log cfu/mL
- Pre-UVA titer (E. coli; INT-100, 15 μM, ~3 J/cm^2): 6.2 log cfu/mL
- Log reduction (E. coli; INT-100, 150 μM, ~3 J/cm^2): >7.1 log
- Post-UVA titer (E. coli; INT-100, 150 μM, ~3 J/cm^2): <−0.7 log cfu/mL
- Pre-UVA titer (E. coli; INT-100, 150 μM, ~3 J/cm^2): 6.4 log cfu/mL
- E. coli Log Reduction (E. coli; INT-100, 220 mL plasma, 15 μM): 5.3 log
- E. coli Log Reduction (E. coli; INT-100, 350 mL plasma, 15 μM): 4.4 log
- % S-59 remaining ([1]; 340 nm, 1.5 μM, ~3 J/cm^2): 9.0%
- % S-59 remaining ([1]; 340 nm, 1.5 μM, ~6 J/cm^2): <LOQ
- % S-59 remaining ([1]; 340 nm, 1.5 μM, ~9 J/cm^2): <LOQ
- % S-59 remaining ([1]; 340 nm, 15 μM, ~3 J/cm^2): 13.5%
- % S-59 remaining ([1]; 340 nm, 15 μM, ~6 J/cm^2): 2.5%
- % S-59 remaining ([1]; 340 nm, 15 μM, ~9 J/cm^2): <LOQ
- % S-59 remaining ([1]; 340 nm, 150 μM, ~3 J/cm^2): 39.9%
- % S-59 remaining [1, 4]: 3.0%
- S-59 Remaining [1, 4]: 0.5 µM
- % S-59 remaining [1, 5]: 8.0%
- S-59 Remaining [1, 5]: 1.1 µM
- % S-59 remaining ([1]; INT-100, 15 μM, ~3 J/cm^2): 40.5%
- % S-59 remaining ([1]; INT-100, 150 μM, ~3 J/cm^2): 63.0%
- % S-59 remaining [1, 6]: 26.0%
- S-59 Remaining [1, 6]: 4.0 µM
- % S-59 remaining [1, 7]: 37.0%
- S-59 Remaining [1, 7]: 5.5 µM
- Log reduction from S-59 (S. epidermidis; 265 nm): 0.89 log
- Log reduction total (S. epidermidis; 265 nm): 5.23 log
- Log reduction from S-59 (S. epidermidis; 280 nm): 1.56 log
- Log reduction total (S. epidermidis; 280 nm): 5.02 log
- Log reduction from S-59 (S. epidermidis; 310 nm): 6.68 log
- Log reduction total (S. epidermidis; 310 nm): 7.19 log
- Log reduction from S-59 (S. epidermidis; 325 nm): 7.17 log
- Log reduction total (S. epidermidis; 325 nm): 7.18 log
- Log reduction from S-59 (S. epidermidis; 340 nm): 7.18 log
- Log reduction total (S. epidermidis; 340 nm): 7.28 log
- Log reduction from S-59 (S. epidermidis; 365 nm): 7.32 log
- Log reduction total (S. epidermidis; 365 nm): 7.26 log
- Log reduction from S-59 (S. epidermidis; 385 nm): 1.85 log
- Log reduction total (S. epidermidis; 385 nm): 1.76 log
- Log Inact. ([2]; 220 mL, 340 nm LED ~3.0 J/cm^2): 2.28 log and 2.39 log
- Post-Txt Titer ([2]; 220 mL, 340 nm LED ~3.0 J/cm^2): 4.32 log10 and 2.85 log10
- Log Inact. ([2]; 220 mL, INT 100 ~3.0 J/cm^2): 2.02 log and 1.97 log
- Post-Txt Titer ([2]; 220 mL, INT 100 ~3.0 J/cm^2): 4.58 log10 and 3.27 log10
- Pre-Txt Titer ([2]; 220 mL): 6.60 log10 and 5.24 log10
- Log Inact. ([2]; 350 mL, 340 nm LED ~3.0 J/cm^2): 2.34 log and 2.21 log
- Post-Txt Titer ([2]; 350 mL, 340 nm LED ~3.0 J/cm^2): 4.26 log10 and 3.03 log10
- Log Inact. ([2]; 350 mL, INT 100 ~3.0 J/cm^2): 1.76 log and 1.66 log
- Post-Txt Titer ([2]; 350 mL, INT 100 ~3.0 J/cm^2): 4.93 log10 and 3.58 log10
- Pre-Txt Titer ([2]; 350 mL): 6.60 log10 and 5.24 log10
- Log inactivation ([2]; 340 nm LED ~6.4 J/cm^2): 4.6 log
- Post-treatment titer ([2]; 340 nm LED ~6.4 J/cm^2): 1.7 log PFU
- Pre-treatment titer ([2]; 340 nm unit): 6.3 log PFU
- Log inactivation ([2]; 365 nm LED ~6.4 J/cm^2): 3.0 log
- Post-treatment titer ([2]; 365 nm LED ~6.4 J/cm^2): 3.3 log PFU
- Pre-treatment titer ([2]; 365 nm unit): 6.3 log PFU
- Pre-treatment titer ([2]; INT-100 unit): 6.3 log PFU
- Log inactivation ([2]; INT-100 ~6.4 J/cm^2): 3.4 log
- Post-treatment titer ([2]; INT-100 ~6.4 J/cm^2): 2.9 log PFU
- S-59 post-UVA concentration ([3]; 15 μM, 4 hr incubation, 340 nm ~3 J/cm^2): 0.6 µM
- S-59 post-UVA concentration ([3]; 15 μM, 8 hr incubation, 340 nm ~3 J/cm^2): 0.6 µM
- S-59 post-UVA concentration ([3]; 15 μM, 8 hr, 340 nm ~3 J/cm^2 Top Only): <1 µM
- S-59 post-UVA concentration ([3]; 15 μM, 8 hr, 340 nm ~3 J/cm^2 Top/Bottom): <1 µM
- S-59 post-UVA concentration ([3]; 15 μM, 24 hr incubation, 340 nm ~3 J/cm^2): 0.6 µM
- S-59 post-UVA concentration ([3]; 15 μM, 24 hr, 340 nm ~3 J/cm^2 Top Only): <1 µM
- S-59 post-UVA concentration ([3]; 15 μM, 24 hr, 340 nm ~3 J/cm^2 Top/Bottom): <1 µM
- S-59 post-UVA concentration ([3]; 30 μM, 4 hr incubation, 340 nm ~3 J/cm^2): 0.8 µM
- S-59 post-UVA concentration ([3]; 30 μM, 8 hr incubation, 340 nm ~3 J/cm^2): 0.9 µM
- S-59 post-UVA concentration ([3]; 30 μM, 8 hr, 340 nm ~3 J/cm^2 Top Only): <1 µM
- S-59 post-UVA concentration ([3]; 30 μM, 8 hr, 340 nm ~3 J/cm^2 Top/Bottom): <1 µM
- S-59 post-UVA concentration ([3]; 30 μM, 24 hr incubation, 340 nm ~3 J/cm^2): 0.8 µM
- S-59 post-UVA concentration ([3]; 30 μM, 24 hr, 340 nm ~3 J/cm^2 Top Only): <1 µM
- S-59 post-UVA concentration ([3]; 30 μM, 24 hr, 340 nm ~3 J/cm^2 Top/Bottom): <1 µM
- S-59 post-UVA concentration ([3]; 90 μM, 4 hr incubation, 340 nm ~3 J/cm^2): 3.8 µM
- S-59 post-UVA concentration ([3]; 90 μM, 8 hr incubation, 340 nm ~3 J/cm^2): 0.9 µM
- S-59 post-UVA concentration ([3]; 90 μM, 24 hr incubation, 340 nm ~3 J/cm^2): 3.3 µM
- S-59 post-UVA concentration ([3]; 150 μM, 0 hr incubation, 340 nm, more than twice ~3 J/cm^2): 2.1 µM
- S-59 post-UVA concentration ([3]; 150 μM, 0 hr, 340 nm Top Only): 10.8 µM
- S-59 post-UVA concentration ([3]; 150 μM, 0 hr, 340 nm Top/Bottom): 7.7 µM
